Laboratory results published in patent US6495568B1, “Hydroxamic acid derivatives as matrix metalloprotease (MMP) inhibitors” (Warner-Lambert Company, priority 1997, dated 2002).

Which melting point does the source give for `CCCCC(C(=O)NO)S(=O)(=O)N1CC=C(c2ccc(-c3ccccc3)cc2)CC1` (racemic) [Example 13, N-Hydroxy-2(R,S)-[4-(4-phenylphenyl)-1,2,3,6-tetrahydropyridin-1-ylsulphonyl]hexanamide] here?
The melting point was 186 to 189 °C.

With `C=C(C)CC(C(=O)NO)S(=O)(=O)N1CC=C(c2ccc(-c3ccccc3)cc2)CC1` (racemic) [Example 14, N-Hydroxy-4-methyl-2(R,S)-[4-(4-phenylphenyl)-1,2,3,6-tetrahydropyridin-1-ylsulphonyl]pent-4-enamide] as the molecule, how does the melting point read?
The melting point was 170 to 171 °C.

For `COCCC(C(=O)NO)S(=O)(=O)N1CC=C(c2ccc(-c3ccccc3)c(C)c2)CC1` (racemic) [Example 48, N-Hydroxy-4-methoxy-2(R,S)-[4-(3-methyl-4-phenylphenyl)-1,2,3,6-tetrahydropyridin-1-ylsulphonyl]butanamide], which melting point is on record?
The melting point was 135 to 136 °C.

Which melting point does the source give for `O=C(NO)C(Cc1ccccc1)S(=O)(=O)N1CC=C(c2ccc(-c3ccccc3)cc2)CC1` (racemic) [Example 53, N-Hydroxy-3-phenyl-2(R,S)-[4-(4-phenylphenyl)-1,2,3,6-tetrahydropyridin-1-ylsulphonyl]propanamide] here?
Its melting point is 202 to 205 °C.

Which melting point does the source give for `O=C(CS(=O)(=O)N1CC=C(c2ccc(-c3ccccc3)cc2)CC1)NO` [Example 1, N-Hydroxy-2-[4-(4-phenylphenyl)-1,2,3,6-tetrahydropyridin-1-ylsulphonyl]acetamide] here?
The melting point was 216 to 218 °C.

With `O=C(CS(=O)(=O)N1CC=C(c2ccccc2)CC1)NO` [Example 4, N-Hydroxy-2-(4-phenyl-1,2,3,6-tetrahydropyridin-1-ylsulphonyl)acetamide] as the molecule, how does the melting point read?
Its melting point is 175 to 176 °C.

With `O=C(CS(=O)(=O)N1CCC(c2ccccc2)CC1)NO` [Example 5, N-Hydroxy-2-(4-phenylpiperidin-1-ylsulphonyl)acetamide] as the molecule, how does the melting point read?
Its melting point is 185 to 187 °C.

With `O=C(CS(=O)(=O)N1CCC(Cc2ccccc2)CC1)NO` [Example 6, N-Hydroxy-2-(4-benzylpiperidin-1-ylsulphonyl)acetamide] as the molecule, how does the melting point read?
Its melting point is 132 to 135 °C.

With `COc1cc(C2=CCN(S(=O)(=O)CC(=O)NO)CC2)ccc1-c1ccccc1` [Example 18, N-Hydroxy-2-[4-(3-methoxy-4-phenylphenyl)-1,2,3,6-tetrahydropyridin-1-ylsulphonyl]acetamide] as the molecule, how does the melting point read?
The melting point was 175 to 177 °C.

For `COc1cc(C2=CCN(S(=O)(=O)C(C)(C)C(=O)NO)CC2)ccc1-c1ccccc1` [Example 19, N-Hydroxy-2-[4-(3-methoxy-4-phenylphenyl)-1,2,3,6-tetrahydropyridin-1-ylsulphonyl]-2-methylpropanamide], which melting point is on record?
The melting point was 156 to 158 °C.

Which melting point does the source give for `O=C(CS(=O)(=O)N1CC=C(c2ccc(-c3ccccc3)c(F)c2)CC1)NO` [Example 20, N-Hydroxy-2-[4-(3-fluoro-4-phenylphenyl)-1,2,3,6-tetrahydropyridin-1-ylsulphonyl]acetamide] here?
Its melting point is 184 to 188 °C.

Which melting point does the source give for `CCOc1cccc(-c2ccc(C3=CCN(S(=O)(=O)CC(=O)NO)CC3)cc2)c1` [Example 21, N-Hydroxy-2-{4-[4-(3-ethoxyphenyl)phenyl]-1,2,3,6-tetrahydropyridin-1-ylsulphonyl}acetamide] here?
Its melting point is 168 to 170 °C.

With `COc1cccc(-c2ccc(C3=CCN(S(=O)(=O)CC(=O)NO)CC3)cc2C)c1` [Example 22, N-Hydroxy-2-{4-[4-(3-methoxyphenyl)-3-methylphenyl]-1,2,3,6-tetrahydropyridin-1-ylsulphonyl}acetamide] as the molecule, how does the melting point read?
Its melting point is 162 to 165 °C.

With `CCc1cccc(-c2ccc(C3=CCN(S(=O)(=O)CC(=O)NO)CC3)cc2C)c1` [Example 23, N-Hydroxy-2-{4-[4-(3-ethylphenyl)-3-methylphenyl]-1,2,3,6-tetrahydropyridin-1-ylsulphonyl}acetamide] as the molecule, how does the melting point read?
Its melting point is 151 to 154 °C.

Which melting point does the source give for `COc1cccc(-c2ccc(C3CCN(S(=O)(=O)C(C)(C)C(=O)NO)CC3)cc2OC)c1` [Example 26, N-Hydroxy-2-{4-[3-methoxy-4-(3-methoxyphenyl)phenyl]piperidin-1-ylsulphonyl}-2-methylpropanamide] here?
The melting point was 161 to 163 °C.

With `CCOc1cccc(-c2ccc(C3CCN(S(=O)(=O)C(C)(C)C(=O)NO)CC3)cc2OC)c1` [Example 27, N-Hydroxy-2-{4-[4(3-ethoxyphenyl)-3-methoxyphenyl]piperidin-1-ylsulphonyl}-2-methylpropanamide] as the molecule, how does the melting point read?
The melting point was 134 to 136 °C.

Which melting point does the source give for `CCOc1cccc(-c2ccc(C3=CCN(S(=O)(=O)C(C)(C)C(=O)NO)CC3)cc2C)c1` [Example 30, N-Hydroxy-2-{4-[4-(3-ethoxyphenyl)-3-methylphenyl]-1,2,3,6-tetrahydropyridin-1-ylsulphonyl}2-methylpropanamide] here?
The melting point was 116 to 118 °C.

For `CCOc1cccc(-c2ccc(C3CCN(S(=O)(=O)CC(=O)NO)CC3)cc2C)c1` [Example 31, N-Hydroxy-2-{4-[4-(3-ethoxyphenyl)-3-methylphenyl]piperidin-1-ylsulphonyl}acetamide], which melting point is on record?
The melting point was 179 to 180 °C.

With `CCOc1cccc(-c2ccc(C3CCN(S(=O)(=O)C(C)(C)C(=O)NO)CC3)cc2C)c1` [Example 32, N-Hydroxy-2-{4-[4-(3-ethoxyphenyl)-3-methylphenyl]piperidin-1-ylsulphonyl}-2-methylpropanamide] as the molecule, how does the melting point read?
Its melting point is 172 to 174 °C.

With `Cc1cc(C2=CCN(S(=O)(=O)CC(=O)NO)CC2)ccc1-c1cccnc1` [Example 34, N-Hydroxy-2-{4-[3-methyl-4-(pyridin-3-yl)phenyl]-1,2,3,6-tetrahydropyridin-1-ylsulphonyl}acetamide] as the molecule, how does the melting point read?
The melting point was 132 to 136 °C.

For `Cc1cc(C2=CCN(S(=O)(=O)CC(=O)NO)CC2)ccc1-c1cccc(CO)c1` [Example 39, N-Hydroxy-2-{4-[4-(3-hydroxymethylphenyl)-3-methylphenyl]-1,2,3,6-tetrahydropyridin-1-ylsulphonyl}acetamide], which melting point is on record?
The melting point was 174 to 176 °C.

Which melting point does the source give for `COCc1cccc(-c2ccc(C3=CCN(S(=O)(=O)CC(=O)NO)CC3)cc2C)c1` [Example 42, N-Hydroxy-2-{4-[4-(3-methoxymethylphenyl)-3-methylphenyl]-1,2,3,6-tetrahydropyridin-1-ylsulphonyl}acetamide] here?
Its melting point is 151 to 153 °C.

With `COCCOc1cccc(-c2ccc(C3=CCN(S(=O)(=O)CC(=O)NO)CC3)cc2C)c1` [Example 43, N-Hydroxy-2-{4-[4-(3-[2-methoxyethoxy]phenyl)-3-methylphenyl]-1,2,3,6-tetrahydropyridin-1-ylsulphonyl}acetamide] as the molecule, how does the melting point read?
The melting point was 158 to 160 °C.

Which melting point does the source give for `Cc1cc(C2=CCN(S(=O)(=O)CC(=O)NO)CC2)ccc1-c1cccc(C(F)(F)F)c1` [Example 45, N-Hydroxy-2-{4[3-methyl-4-(3-trifluoromethylphenyl)phenyl]-1,2,3,6-tetrahydropyridin-1-ylsulphonyl}acetamide] here?
Its melting point is 168 to 170 °C.

For `O=C(CS(=O)(=O)N1CCC(c2ccc(Oc3ccccc3)cc2)CC1)NO` [Example 46, N-Hydroxy-2-[4-(4-phenoxyphenyl)piperidin-1-ylsulphonyl]acetamide], which melting point is on record?
Its melting point is 176 to 179 °C.

For `COCCOc1cccc(-c2ccc(C3CCN(S(=O)(=O)C(C)(C)C(=O)NO)CC3)cc2C)c1` [Example 47, N-Hydroxy-2-{4-[4-(3-[2-methoxyethoxy]phenyl)-3-methylphenyl]piperidin-1-ylsulphonyl}-2-methylpropanamide], which melting point is on record?
Its melting point is 155 to 156 °C.
